# From ChEMBL document CHEMBL4420081, “Novel benzylamino substituted quinazolines and derivatives as sos1 inhibitors” (2018)
# Activity calls are given as the source filed them. The calls are words filed in the database; no cut-off is given here.
# Assays:
# [1] = tested on: A549; experiment: Growth inhibition of human A549 cells grown under 3D anchorage-independent soft-agar conditions at 11.1 nM incubated for 14 days by alamar blue dye based assay relative to control; assay type: functional; conditions: A549, 336 h, read-out: GI
# [2] = tested on: A549; experiment: Growth inhibition of human A549 cells grown under 3D anchorage-independent soft-agar conditions at 1.23 nM incubated for 14 days by alamar blue dye based assay relative to control; assay type: functional; conditions: A549, 336 h, read-out: GI
# [3] = tested on: NCI-H1792; experiment: Growth inhibition of human NCI-H1792 cells grown under 3D anchorage-independent soft-agar conditions at 33.3 nM incubated for 14 days by alamar blue dye based assay relative to control; assay type: functional; conditions: NCI-H1792, 336 h, read-out: GI
# [4] = tested on: MIA PaCa-2; experiment: Antitumor activity against human MIAPaCa2 cells grown under 3D anchorage-independent soft-agar conditions at xenografted in BomTacNMRI-Foxn1 nu mouse assessed as inhibition of tumor regression at 10 mg/kg, iv dosed in q7d regime relative to control; assay type: functional, organism-based
# [5] = tested on: A549; experiment: Growth inhibition of human A549 cells grown under 3D anchorage-independent soft-agar conditions at 100 nM incubated for 14 days by alamar blue dye based assay relative to control; assay type: functional; conditions: A549, 336 h, read-out: GI
# [6] = tested on: NCI-H1792; experiment: Growth inhibition of human NCI-H1792 cells grown under 3D anchorage-independent soft-agar conditions at 3.7 nM incubated for 14 days by alamar blue dye based assay relative to control; assay type: functional; conditions: NCI-H1792, 336 h, read-out: GI
# [7] = tested on: NCI-H1792; experiment: Growth inhibition of human NCI-H1792 cells grown under 3D anchorage-independent soft-agar conditions at 100 nM incubated for 14 days by alamar blue dye based assay relative to control; assay type: functional; conditions: NCI-H1792, 336 h, read-out: GI
# [8] = tested on: A549; experiment: Growth inhibition of human A549 cells grown under 3D anchorage-independent soft-agar conditions at 3.7 nM incubated for 14 days by alamar blue dye based assay relative to control; assay type: functional; conditions: A549, 336 h, read-out: GI
# [9] = tested on: NCI-H1792; experiment: Growth inhibition of human NCI-H1792 cells grown under 3D anchorage-independent soft-agar conditions at 1.23 nM incubated for 14 days by alamar blue dye based assay relative to control; assay type: functional; conditions: NCI-H1792, 336 h, read-out: GI
# [10] = tested on: A549; experiment: Growth inhibition of human A549 cells grown under 3D anchorage-independent soft-agar conditions at 33.3 nM incubated for 14 days by alamar blue dye based assay relative to control; assay type: functional; conditions: A549, 336 h, read-out: GI
# [11] = tested on: NCI-H1792; experiment: Growth inhibition of human NCI-H1792 cells grown under 3D anchorage-independent soft-agar conditions at 11.1 nM incubated for 14 days by alamar blue dye based assay relative to control; assay type: functional; conditions: NCI-H1792, 336 h, read-out: GI
# [12] = tested on: NCI-H358; experiment: Growth inhibition of human NCI-H358 cells grown under 3D anchorage-independent soft-agar conditions at 37 nM incubated for 14 days by alamar blue dye based assay relative to control; assay type: functional; conditions: NCI-H358, 336 h, read-out: GI
# [13] = tested on: NCI-H1792; experiment: Growth inhibition of human NCI-H1792 cells grown under 3D anchorage-independent soft-agar conditions at 37 nM incubated for 14 days by alamar blue dye based assay relative to control; assay type: functional; conditions: NCI-H1792, 336 h, read-out: GI
# [14] = tested on: NCI-H1792; experiment: Growth inhibition of human NCI-H1792 cells grown under 3D anchorage-independent soft-agar conditions at 1000 nM incubated for 14 days by alamar blue dye based assay relative to control; assay type: functional; conditions: NCI-H1792, 336 h, read-out: GI
# [15] = tested on: NCI-H358; experiment: Growth inhibition of human NCI-H358 cells grown under 3D anchorage-independent soft-agar conditions at 111 nM incubated for 14 days by alamar blue dye based assay relative to control; assay type: functional; conditions: NCI-H358, 336 h, read-out: GI
# [16] = tested on: NCI-H358; experiment: Growth inhibition of human NCI-H358 cells grown under 3D anchorage-independent soft-agar conditions at 12.3 nM incubated for 14 days by alamar blue dye based assay relative to control; assay type: functional; conditions: NCI-H358, 336 h, read-out: GI
# [17] = tested on: NCI-H1792; experiment: Growth inhibition of human NCI-H1792 cells grown under 3D anchorage-independent soft-agar conditions at 111 nM incubated for 14 days by alamar blue dye based assay relative to control; assay type: functional; conditions: NCI-H1792, 336 h, read-out: GI
# [18] = tested on: NCI-H358; experiment: Growth inhibition of human NCI-H358 cells grown under 3D anchorage-independent soft-agar conditions at 333 nM incubated for 14 days by alamar blue dye based assay relative to control; assay type: functional; conditions: NCI-H358, 336 h, read-out: GI
# [19] = tested on: NCI-H1792; experiment: Growth inhibition of human NCI-H1792 cells grown under 3D anchorage-independent soft-agar conditions at 12.3 nM incubated for 14 days by alamar blue dye based assay relative to control; assay type: functional; conditions: NCI-H1792, 336 h, read-out: GI
# [20] = tested on: NCI-H1792; experiment: Growth inhibition of human NCI-H1792 cells grown under 3D anchorage-independent soft-agar conditions at 333 nM incubated for 14 days by alamar blue dye based assay relative to control; assay type: functional; conditions: NCI-H1792, 336 h, read-out: GI
# [21] = tested on: NCI-H358; experiment: Growth inhibition of human NCI-H358 cells grown under 3D anchorage-independent soft-agar conditions at 1000 nM incubated for 14 days by alamar blue dye based assay relative to control; assay type: functional; conditions: NCI-H358, 336 h, read-out: GI
# [22] = tested on: NCI-H358; experiment: Induction of apoptosis in human NCI-H358 cells grown under 3D anchorage-independent soft-agar conditions at grown under 3D anchorage-independent soft-agar conditions assessed as induction of PARP cleavage at 1 uM in presence of 125 nM of afatinib incubated for 24 hrs by mesoscale assay; assay type: functional, cell-based
# [23] = tested on: A549; experiment: Induction of apoptosis in human A549 cells grown under 3D anchorage-independent soft-agar conditions at grown under 3D anchorage-independent soft-agar conditions assessed as induction of PARP cleavage at 1 uM in presence of 10 nM of paclitaxel incubated for 24 to 48 hrs by mesoscale assay; assay type: functional, cell-based
# [24] = tested on: NCI-H358; experiment: Induction of apoptosis in human NCI-H358 cells grown under 3D anchorage-independent soft-agar conditions at grown under 3D anchorage-independent soft-agar conditions assessed as induction of PARP cleavage at 1 uM incubated for 24 to 72 hrs by mesoscale assay; assay type: functional, cell-based
# [25] = tested on: MIA PaCa-2; conditions: Homo sapiens, 50 mg/kg
# Description: Antitumor activity against human MIAPaCa2 cells grown under 3D anchorage-independent soft-agar conditions at xenografted in BomTacNMRI-Foxn1 nu mouse assessed as inhibition of tumor regression at 50 mg/kg, po BID relative to control
# [26] = tested on: NCI-H358; experiment: Induction of apoptosis in human NCI-H358 cells grown under 3D anchorage-independent soft-agar conditions at grown under 3D anchorage-independent soft-agar conditions assessed as induction of PARP cleavage at 125 nM incubated for 48 hrs by mesoscale assay; assay type: functional, cell-based
compound,measurement,setting,value
CC(=O)O[C@H]1C(=O)[C@@]2(C)[C@H]([C@H](OC(=O)c3ccccc3)[C@]3(O)C[C@H](OC(=O)[C@H](O)[C@@H](NC(=O)c4ccccc4)c4ccccc4)C(C)=C1C3(C)C)[C@]1(OC(C)=O)CO[C@@H]1C[C@@H]2O [PACLITAXEL],inhibition of growth at 0.0111 µM,[1],86%
same,inhibition of growth at 0.00123 µM,[2],12%
same,inhibition of growth at 0.0333 µM,[3],96%
same,inhibition,[4],inactive
same,inhibition of growth at 0.1 µM,[5],114%
same,inhibition of growth at 0.0037 µM,[6],19%
same,inhibition of growth at 0.1 µM,[7],183%
same,inhibition of growth at 0.0037 µM,[8],54%
same,inhibition of growth at 0.00123 µM,[9],7%
same,inhibition of growth at 0.0333 µM,[10],97%
same,inhibition of growth at 0.0111 µM,[11],66%
C=CC(=O)N1CCN(c2ncnc3c(F)c(-c4cc(O)cc5ccccc45)c(Cl)cc23)CC1,inhibition of growth at 0.037 µM,[12],47%
same,inhibition of growth at 0.037 µM,[13],29%
same,inhibition of growth at 1 µM,[14],81%
same,inhibition of growth at 0.111 µM,[15],87%
same,inhibition of growth at 0.0123 µM,[16],17%
same,inhibition of growth at 0.111 µM,[17],42%
same,inhibition of growth at 0.333 µM,[18],139%
same,inhibition of growth at 0.0123 µM,[19],5%
same,inhibition of growth at 0.333 µM,[20],46%
same,inhibition of growth at 1 µM,[21],180%
COc1cc2nc(C)nc(N[C@H](C)c3cc(N)cc(C(F)(F)F)c3)c2cc1O[C@H]1CCOC1,Activity,[22],Active
same,Activity,[23],Active
same,Activity,[24],inactive
same,inhibition,[25],inactive
CN(C)C/C=C/C(=O)Nc1cc2c(Nc3ccc(F)c(Cl)c3)ncnc2cc1O[C@H]1CCOC1,Activity,[26],Active
